Measured values: patent US20240389600A1 (The United States of America, as represented by the …, priority 2023, published 2024)
Read-outs that look alike come from different tables or passages of the source.

How the values were obtained:
Georgia-06G peanut seeds [1] = conditions: 20° C.
Georgia-06G peanut seeds [2] = conditions: 3% H2O2 replaced every 24 h, seed to liquid 1:8 w/v, 20° C., 72 h, Georgia-06G (2021 harvest)
Georgia-06G peanut seeds [3] = experiment: Static incubation of hydrated peanut seeds with H2O2; resveratrol content by HPLC; conditions: for resveratrol content in seeds: 48 and 72-h incubation

OO [H2O2, hydrogen peroxide]
resveratrol accumulation (Georgia-06G peanut seeds [1]; 2% H2O2, in-shaker, after 72 h, Georgia-06G 2021): exceeding 300 μg/g of seed dry weight | resveratrol concentration (Georgia-06G peanut seeds [1]; 3% H2O2 replaced every 24 h, seed to liquid 1:4 w/v, shaker, 72 h, Georgia-06G (2021 harvest)): 400 µg/g | concentration of resveratrol in seed extract chromatogram (Georgia-06G peanut seeds [1]; 3 portions of 3% H2O2 (new charge every 24 h), shaker, 72 h, Georgia-06G 2021): 334 μg/g of dry weight | resveratrol concentration (Georgia-06G peanut seeds [2]): 600 µg/g | resveratrol content in seeds (Georgia-06G peanut seeds [3]; 2% H2O2, 20° C., Georgia-06G (2021 harvest), FIG. 13): 100 to 200 µg/g | resveratrol production under moderate acidic conditions (Georgia-06G peanut seeds [3]; 2% H2O2, 20° C., static, acidic conditions, Georgia-06G 2020 harvest): almost completely blocked resveratrol production | levels of resveratrol in seeds (Georgia-06G peanut seeds [3]; 3% H2O2, static, 15° C., after 72 and 96 h, Georgia-06G (2021 harvest)): 20 to 50 µg/g | resveratrol content in seeds (Georgia-06G peanut seeds [3]; static, 20° C., Georgia-06G (2021 harvest), FIG. 11C): 50 to 100 µg/g | concentration of H2O2 that damages seeds (overall production of resveratrol drops, particularly after 72 h) (Georgia-06G peanut seeds [3]; static, 20° C., seeds to H2O2 1:6 w/v, Georgia-06G 2021): above 4%
